Values after ≈ are worked out from the molar mass of the structure shown. Where two headings read alike, the source gives them in different places. Non-standard residues stand in square brackets, D forms with d. No end group written: not given here. Dab = NCC[C@H](N)C(=O)O
What was measured:
S. aureus (MRSA SAP0017) = format: cell-based, Staphylococcus aureus; settings: for % Biofilm Inhibition: SPOT synthesized control peptides, determined as in Table 5, Table 7
Experimental: Methods of assessment of anti-biofilm activity: MRSA S. aureus strain SAP0017 biofilm formation was initially analyzed using a static abiotic solid surface assay as described elsewhere (de la Fuente-Nunez et al., 2012) and shown graphically in FIG. 2. Dilutions (1/100) of overnight cultures were incubated in BM2 biofilm-adjusted medium [62 mM potassium phosphate buffer (pH 7), 7 mM (NH4)2SO4, 2 mM MgSO4, 10 μM FeSO4, 0.4% (wt/vol) glucose, 0.5% (wt/vol) Casamino Acids], or a nutrient rich medium such as Tryptic soy broth supplemented with 1% glucose, in polypropylene microtiter plates (Falcon, United States) in the absence (control) or presence of peptide. Peptide was added at time zero (prior to adding the diluted, overnight cultures) in varying concentrations, and the amount biofilm formation was recorded after 22-46 h incubation for most bacteria. To quantify biofilm growth, planktonic cells were removed and biofilm cells adhering to the side of the wells were stained with crystal violet, and absorbance at 595 nm was measured using a microtiter plate reader (Bio-Tek Instruments Inc., United States).

MCP-1 = MCP-1 chemokine induction in human PBMCs, ELISA (Tables 6, 7; FIGS. 6-9, 13); format: cell-based; settings: SPOT synthesized control peptides, determined as in Table 6; Table 7
Experimental: Venous blood (20 ml) from healthy volunteers was collected in Vacutainer® collection tubes containing sodium heparin as an anticoagulant (Becton Dickinson, Mississauga, ON) in accordance with UBC ethical approval and guidelines. Blood was diluted 1:1 with complete RPMI 1640 medium and separated by centrifugation over a Ficoll-Paque® Plus (Amersham Biosciences, Piscataway, N.J., USA) density gradient. White blood cells were isolated from the buffy coat, washed twice in PBS and then resuspended in RPMI 1640 complete medium (containing 10% fetal bovine serum), and the number of peripheral blood mononuclear cells (PBMC) was determined by Trypan blue exclusion. PBMCs (5×10^5) were seeded into 12-well tissue culture dishes (Falcon; Becton Dickinson) at 0.75-1×10^6 cells/ml at 37° C. in 5% CO2. The above conditions were chosen to mimic conditions for circulating blood monocytes entering tissues at the site of infection via extravasation.
Following incubation of the cells under various treatment regimens, the tissue culture supernatants were centrifuged at 1000×g for 5 min, then at 10,000×g for 2 min to obtain cell-free samples. Supernatants were aliquoted and then stored at −20° C. prior to assay for various chemokines by capture ELISA (eBioscience and BioSource International Inc., CA, USA respectively)

IL-1β = experiment: Suppression of LPS-induced IL-1β production in human PBMCs, ELISA (Tables 6, 7; FIGS. 6-9, 13); settings: SPOT synthesized control peptides, determined as in Table 6; Table 7
PBMCs = experiment: Cytotoxicity towards PBMCs, lactate dehydrogenase (LDH) release assay (Tables 6, 7); settings: SPOT synthesized peptide ~25 μM, PBMCs from 3 human donors; Table 6
[1] = tested on: planktonic methicillin resistant S. aureus; experiment: microbe, parasite or virus in culture; format: cell-based, Staphylococcus aureus; settings: for MIC: Staphylococcus aureus

Row | Compound | % Biofilm Inhibition (S. aureus (MRSA SAP0017)) [%] | MCPI production in PBMC (MCP-1) [pg/mL] | Fold Change in IL1-β relative to untreated LPS-stimulated cells (IL-1β) | % Toxicity (LDH Release) (PBMCs) [%] | other results
1 | C35 (IILKRVQVQKIK) [Peptide C35] | 101 | 481 | 1.1 |  | 
2 | IQLKLIWVKRKW-NH2 [MILBFmax5, IQLKLIWVKRKW] |  |  |  | −1.3 | 
3 | VQWIQIVVWRKR-NH2 [BFmax-6, VQWIQIVVWRKR] |  |  |  | −4.4 | 
4 | C51 (VKWKGKVIVVQL) [Peptide C51] | 79 | 862 | 0.81 |  | 
5 | C19 (RLIQWGWKIWAV) [Peptide C19] | 99 | 738 | 0.94 |  | 
6 | IVKWIAQWKLVG-NH2 [Imax- 10] |  |  |  | −1 | 
7 | RVLIKWKKVIVV-NH2 [IBFmax-8, RVLIKWKKVIVV] |  |  |  | −1.8 | 
8 | C29 (VIAKIVLLRAGL) [Peptide C29] | 100 | 1809 | 0.99 |  | 
9 | C34 (WRIKKQWIQIIV) [Peptide C34] | 99 | 217 | 1.13 |  | 
10 | QQVKWWLIRWLA-NH2 [IBFmax-11, QQVKWWLIRWLA] |  |  |  | −0.1 | 
11 | C24 (LKILIAQAKKGL) [Peptide C24] | 101 | 1280 | 1.4 |  | 
12 | C42 (AIGAARAWRQWA) [Peptide C42] | 102 | 114 | 0.85 |  | 
13 | C52 (KIVQKKLRLVVI) [Peptide C52] | 99 | 291 | 0.76 |  | 
14 | C31 (RAIIKQRWQRRW) [Peptide C31] | 103 | 1649 | 1.09 |  | 
15 | C56 (IIKWIVVRQIRK) [Peptide C56] | 102 | 57 | 0.85 |  | 
16 | KIWGLLKLGIAL-NH2 [Imax-6, KIWGLLKLGIAL] |  |  |  | 1.1 | 
17 | C20 (KLLGILKQAIVV) [Peptide C20] | 100 | 106 | 0.78 |  | 
18 | C21 (VLLRVGARIVVG) [Peptide C21] | 99 | 345 | 0.83 |  | 
19 | LKLKAILKIIRV-NH2 [MILBFmax-1, LKLKAILKIIRV] |  |  |  | 1.5 | 
20 | IKWVLRKIVQII-NH2 [IBFmax-17, IKWVLRKIVQII] |  |  |  | 3.6 | 
21 | KRLQWVKVKKIR-NH2 [BFmax-16, KRLQWVKVKKIR] |  |  |  | 0.6 | 
22 | C47 (KVIQWIIVRRVL) [Peptide C47] | 102 | 1193 | 0.76 |  | 
23 | C43 (AVIVRAAKGGAR) [Peptide C43] | 103 | 100 | 0.99 |  | 
24 | C50 (IKIVRRAKIIIW) [Peptide C50] | 94 | 222 | 0.91 |  | 
25 | VIKVLIKRWLKL-NH2 [BFmax-9, VIKVLIKRWLKL] |  |  |  | 7.4 | 
26 | RARQIRWLRKRV-NH2 [Imin-4, RARQIRWLRKRV] |  |  |  | −4.9 | 
27 | C28 (WIIRWIKIWLKI) [Peptide C28] | 72 | 444 | 0.88 |  | 
28 | C48 (KVIKIVLVRVVK) [Peptide C48] | 99 | 1752 | 1.07 |  | 

Row | Compound | % Biofilm Inhibition (S. aureus (MRSA SAP0017)) [%] | MCPI production in PBMC (MCP-1) [pg/mL] | Fold Change in IL1-β relative to untreated LPS-stimulated cells (IL-1β) | % Toxicity (LDH Release) (PBMCs) [%] | other results
29 | C37 (QQKVIRLLWKAK) [Peptide C37] | 102 | 216 | 0.83 |  | 
30 | C40 (ALLAGRKRAVAV) [Peptide C40] | 102 | 39 | 0.89 |  | 
31 | C38 (RIWRRAWKARWK) [Peptide C38] | 102 | 251 | 1.06 |  | 
32 | C22 (LLIAGKWWKLAI) [Peptide C22] | 103 | 153 | 0.83 |  | 
33 | C18 (IQIQLVKRWAVI) [Peptide C18] | 100 | 1768 | 0.92 |  | 
34 | C46 (IQIWIIRVIWRW) [Peptide C46] | 102 | 697 | 0.91 |  | 
35 | IRILVLRKAIIV-NH2 [MILBFmax-9, IRILVLRKAIIV] |  |  |  | 23.9 | 
36 | WWIKIVVIRVRR-NH2 [IBFmax-13, WWIKIVVIRVRR] |  |  |  | −2 | 
37 | VARWKIIIAKLW-NH2 [BFmax-5, VARWKIIIAKLW] |  |  |  | 2 | 
38 | C44 (LLKLKQKGIVIA) [Peptide C44] | 102 | 365 | 0.94 |  | 
39 | C26 (VWLAQKIGKWIW) [Peptide C26] | 100 | 1153 | 1.41 |  | 
40 | ALAIKVWIKILQ-NH2 [Imax-7, ALAIKVWIKILQ] |  |  |  | −1.1 | 
41 | KKQKKIWRRILV-NH2 [Mmax- 16] |  |  |  | 1.8 | 
42 | IVKKVKLIWGVK-NH2 [MILBFmax-13, IVKKVKLIWGVK] |  |  |  | −3.2 | 
43 | RQVRVKRWRARW-NH2 [Mmax- 18] |  |  |  | −4.9 | 
44 | VRLIVAVRIWRR-NH2 [Peptide 1018, VRLIVAVRIWRR, reference compound] |  |  |  | 21.8 | percentage of biofilm inhibited (S. aureus (MRSA SAP0017); SPOT-synthesized peptide, ~2.5 μM, MRSA SAP0017): 31%; MIC (μM) MHB ([1]; planktonic methicillin resistant S. aureus, broth microdilution in Mueller Hinton Broth (MHB), mean of three biological replicates): 4 µM; MIC (μM) TSB with 1% Glucose ([1]; planktonic methicillin resistant S. aureus, broth microdilution in Tryptic Soy Broth (TSB) supplemented with 1% glucose, mean of three biological replicates): >64 µM
45 | QIIKVVWRAVII-NH2 [MILBFmax-8, QIIKVVWRAVII] |  |  |  | −2.3 | 
46 | VVGLRVRWVRLW-NH2 [Imin-3, VVGLRVRWVRLW] |  |  |  | −4.3 | 
47 | KVVWWKVIIKVL-NH2 [BFmax-2, KVVWWKVIIKVL] |  |  |  | −3.5 | 
48 | WAVRALKVKWAL-NH2 [Imax-20, WAVRALKVKWAL] |  |  |  | −2.7 | 
49 | CN[C@H](CC(C)C)C(=O)N[C@H]1C(=O)N[C@@H](CC(N)=O)C(=O)N[C@H]2C(=O)N[C@H]3C(=O)N[C@H](C(=O)N[C@H](C(=O)O)c4cc(O)cc(O)c4-c4cc3ccc4O)[C@H](O)c3ccc(c(Cl)c3)Oc3cc2cc(c3O[C@@H]2O[C@H](CO)[C@@H](O)[C@H](O)[C@H]2O[C@H]2C[C@](C)(N)[C@H](O)[C@H](C)O2)Oc2ccc(cc2Cl)[C@H]1O [Vancomycin] |  |  |  |  | MIC ([1]; read-out: MIC (μM) MHB): 0.34 µM (≈ 0.493 µg/mL); MIC ([1]; read-out: MIC (μM) TSB with 1% Glucose): 0.68 µM (≈ 0.986 µg/mL)
50 | GLIIKIIKKRLW-NH2 [IBFmax-15, GLIIKIIKKRLW] |  |  |  | 25.1 | 
51 | KVQIIKQLIAKK-NH2 [BFmax-7, KVQIIKQLIAKK] |  |  |  | −3.9 | 
52 | GRVLKIVWRKGR-NH2 [Mmax-3, GRVLKIVWRKGR] |  |  |  | 4.2 | 
53 | VKGAIKRGIWVK-NH2 [Imax- 5] |  |  |  | 3 | 
54 | VKGAIKRGIWVK (VKGAIKRGIWVK-NH2) [Imax-5] |  |  |  |  | % Residual MRSA biofilm growth compared to untreated control (S. aureus (MRSA SAP0017); SPOT synthesized peptide, ~12.5 μM, clinical MRSA strain, crystal violet assay): 99%
55 | C96 (VR[Dab]IVAVRIWRR) [Peptide C96] | 89 |  |  |  | 
